Reference: patent US20070112523A1 (priority 2003, published 2007)

How the values were obtained:
[1] = system: vaccinia virus expressing the green fluorescent protein (vvGFP); assay: microbe, parasite or virus in culture; assay type: cell-based; details: for IC50: Orthopoxvirus vaccinia, BSC-40, 24 h
in vitro = details: African green monkey
[2] = in vivo, po; cited from earlier work

| Compound | anti-viral effect in a cell culture assay (inhibition of viral replication) [1] | IC50 [1] [µM] | CC50 (in vitro) [µM] | bio-availability when administered orally [2] |
| --- | --- | --- | --- | --- |
| COc1c(CCNC(=O)c2cc3ccccc3cc2O)cccc1-c1ccc([N+](=O)[O-])cc1 [TTP-A, 3-hydroxy-naphthalene-2-carboxylic acid [2-(2-methoxy-4′-nitro-biphenyl-3-yl)-ethyl]-amide] | have an anti-viral effect | ~12 | ~900 | – |
| COC(=O)C(Cc1ccc(-c2ccc(F)c(Cl)c2)cc1)NC(=O)c1cc(-c2ccc(C(F)(F)F)cc2)ccc1O (stereo not shown) [TTP-B, 3-(3′-chloro-4′-fluoro-biphenyl-4-yl)-2-[(4-hydroxy-4′-trifluoromethyl-biphenyl-3-carbonyl)-amino]-propionic acid methyl ester] | have an anti-viral effect | ~4.6 | ~600 | – |
| Nc1ccn(C[C@@H](CO)OCP(=O)(O)O)c(=O)n1 [cidofovir] | – | – | – | low bio-availability |
